# In patent publication US20180311238A1, “Selective Agonist Of a6 Containing nAChRs” (Saniona A/S, priority 2017, published 2018):
# Experiments:
# α6/α3β2β3^V273S receptor = target: T1, α6/α3β2β3^V273S receptor (Homo sapiens, UniProt Q15825, V273S); assay: Oocyte two-electrode voltage-clamp electrophysiology, α6/α3β2β3V273S; type: cell-based; details: Xenopus laevis oocytes, fitted maximal current relative to acetylcholine; read-out: maximal efficacy compared to ACh
# T1 construct: fused on or other part: P32297 (Neuronal acetylcholine receptor subunit alpha-3) P17787 (Neuronal acetylcholine receptor subunit beta-2)
# Method: Two-electrode voltage-clamp electrophysiology recordings were done in Xenopus laevis oocytes injected with approximately 25 ng cRNA. After injection, oocytes were incubated at 17° C. for 2-3 days. During measurements, an oocyte was placed in a custom designed recording chamber where compound solutions are added directly to the oocyte via a glass capillary. Compound solutions were prepared on the day of measurement and applied to oocytes with a flowrate of 2.0 ml/min. All datasets were baseline subtracted and responses to individual applications were read as peak current amplitudes. Concentration response relationships describing compound effect at a fixed acetylcholine concentration were fitted to a monophasic Hill-equation. Potency (EC50) and efficacy values (fitted maximal current relative to maximal current of acetylcholine).
# [1] = target: T2, nAChRs of the α4β2 subtype (Rattus norvegicus, UniProt P09483+P12390); assay: In vitro inhibition of 3H-cytisine binding, rat cortex; details: ligand 3H-cytisine
# T2 construct: from tissue; host or cells: rat cerebral cortex membranes
# Method: The predominant subtype with high affinity for nicotine is comprised of α4 and β2 subunits. Here, the nicotine agonist ^3H-cytisine is used to selectively label nAChRs of the α4β2 subtype.
# Preparations were performed at 0-4° C. Cerebral cortices from male Wistar rats (150-250 g) were homogenized for 20 sec in 15 ml Tris-HCl (50 mM, pH 7.4) containing 120 mM NaCl, 5 mM KCl, 1 mM MgCl2 and 2.5 mM CaCl2 using an Ultra-Turrax homogenizer. The homogenate was centrifuged at 27,000×g for 10 min. The supernatant was discarded and the pellet is re-suspended in fresh buffer and centrifuged a second time. The final pellet was re-suspended in fresh buffer (35 ml per g of original tissue) and used for binding assays.
# Aliquots of 500 μl homogenate were added to 25 μl of test solution and 25 μl of ^3H-cytisine (1 nM, final concentration), mixed and incubated for 90 min at 0-4° C. Non-specific binding (5-10% of total binding) was determined using 100 μM (−)-nicotine. […]
# Binding was terminated by rapid filtration onto Whatman GF/B glass fibre filters using a Brandel Cell Harvester, followed by seven washes with 2 ml ice-cold buffer. The amount of radioactivity on the filters was determined by conventional liquid scintillation counting using a Tri-Carb™ counter (PerkinElmer Life and Analytical Sciences).
# Specific binding was calculated as total binding minus non-specific binding.
# α7 = α7 (Rattus norvegicus, UniProt Q05941); assay: biochemical; type: binding
# nicotinic receptors = assay: 3H-epibatidin displacement studies in rats; type: in vivo
# [2] = test system: reserpine-induced tremors; assay: Reserpine-induced tremors in rats (tremor monitor power spectra); type: in vivo, rat; details: reserpine 1 mg/kg i.v.; compound 0.1 and 1.0 mg/kg s.c.; L-DOPA 100 mg/kg i.p. + benserazide
# Source text: Parkinson's disease is associated with severe dopamine deficiency caused by neurodegeneration of dopaminergic cell bodies residing in Substantia Nigra pars compacta. As alpha6 nAChRs are enriched in the nigrostriatal dopamine pathway, activating this receptor may ameliorate symptoms in nigro-striatal dopamine deficiency models. Reserpine injections to rodents result in depletion of monoamines in the nigro-striatal dopamine pathway, resulting in catalepsy and tremors. Both behaviours can be quantified using dedicated tremor boxes.
# Six groups of male Sprague Dawley rats (250-300 grams) were subjected to the following treatment schedules, and effects on power spectra, assessed in automated tremor monitors were evaluated for 30 minutes: • Vehicle+vehicle • Vehicle+reserpine (1 mg/kg) • 9-Methyl-3-pyridin-3-yl-3,9-diaza-bicyclo[3.3.1]nonane (0.1 mg/kg)+reserpine (1 mg/kg) • 9-Methyl-3-pyridin-3-yl-3,9-diaza-bicyclo[3.3.1]nonane (1.0 mg/kg)+reserpine (1 mg/kg) • L-DOPA (100 mg/kg)+reserpine (1 mg/kg) • 9-Methyl-3-pyridin-3-yl-3,9-diaza-bicyclo[3.3.1]nonane (1.0 mg/kg)+L-DOPA (100 mg/kg)+reserpine (1 mg/kg)
# Reserpine was pre-treated i.v. 60 minutes prior to test start in a dose volume of 2 ml/kg. 9-Methyl-3-pyridin-3-yl-3,9-diaza-bicyclo[3.3.1]nonane was pre-treated s.c. 45 minutes prior to test start in a dose volume of 1 ml/kg. The dose of 9-methyl-3-pyridin-3-yl-3,9-diaza-bicyclo[3.3.1]nonane was based on 3H-epibatidin displacement studies showing half maximal displacement of specific binding of 3H-epibatidin in doses equaling 0.15 mg/kg in rats. L-DOPA was pre-treated i.p. 30 minutes prior to test start in a dose volume of 5 ml/kg. […] All animals dosed with L-DOPA was also dosed with the peripherally acting decarboxylase inhibitor Benserazide to prevent the peripheral break down of L-DOPA (benserazide: 50 mg/kg, s.c., 30 min. prior to test start in a dose volume of 1 ml/kg).
# T1 sequence (Q15825 26-239 limits assumed): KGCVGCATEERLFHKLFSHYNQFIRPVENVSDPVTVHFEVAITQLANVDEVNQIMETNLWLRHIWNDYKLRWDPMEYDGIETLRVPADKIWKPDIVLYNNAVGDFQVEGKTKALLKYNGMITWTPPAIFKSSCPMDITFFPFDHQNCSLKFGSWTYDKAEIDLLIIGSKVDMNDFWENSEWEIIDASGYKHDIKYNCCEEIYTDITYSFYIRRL
# T1 sequence (P17787 26-502, further chain): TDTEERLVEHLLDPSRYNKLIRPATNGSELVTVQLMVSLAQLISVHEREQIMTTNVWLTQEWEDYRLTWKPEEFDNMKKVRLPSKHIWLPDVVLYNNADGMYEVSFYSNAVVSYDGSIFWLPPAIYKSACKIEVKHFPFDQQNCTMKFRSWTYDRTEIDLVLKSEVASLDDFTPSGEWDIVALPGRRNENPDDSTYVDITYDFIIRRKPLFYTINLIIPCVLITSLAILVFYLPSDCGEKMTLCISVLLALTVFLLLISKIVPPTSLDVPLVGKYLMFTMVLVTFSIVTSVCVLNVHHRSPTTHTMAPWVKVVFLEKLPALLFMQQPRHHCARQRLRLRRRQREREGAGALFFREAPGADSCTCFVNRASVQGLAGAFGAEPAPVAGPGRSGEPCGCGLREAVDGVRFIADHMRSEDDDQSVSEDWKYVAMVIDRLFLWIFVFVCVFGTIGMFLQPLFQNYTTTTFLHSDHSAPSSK
# T1 sequence (Q05901 22-458 V273S, further chain): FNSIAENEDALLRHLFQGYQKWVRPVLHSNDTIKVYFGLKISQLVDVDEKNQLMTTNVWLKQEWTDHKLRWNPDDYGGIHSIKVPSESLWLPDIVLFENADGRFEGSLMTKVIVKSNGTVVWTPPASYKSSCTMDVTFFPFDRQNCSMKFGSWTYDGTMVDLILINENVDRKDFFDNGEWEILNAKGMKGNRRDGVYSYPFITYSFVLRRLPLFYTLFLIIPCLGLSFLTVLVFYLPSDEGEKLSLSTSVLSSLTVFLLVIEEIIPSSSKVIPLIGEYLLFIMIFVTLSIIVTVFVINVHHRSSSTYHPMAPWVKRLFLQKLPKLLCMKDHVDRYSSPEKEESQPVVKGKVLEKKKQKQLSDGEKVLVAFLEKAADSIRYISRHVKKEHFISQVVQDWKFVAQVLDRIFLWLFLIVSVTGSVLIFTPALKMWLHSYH
# α7, sequence (Q05941 23-502): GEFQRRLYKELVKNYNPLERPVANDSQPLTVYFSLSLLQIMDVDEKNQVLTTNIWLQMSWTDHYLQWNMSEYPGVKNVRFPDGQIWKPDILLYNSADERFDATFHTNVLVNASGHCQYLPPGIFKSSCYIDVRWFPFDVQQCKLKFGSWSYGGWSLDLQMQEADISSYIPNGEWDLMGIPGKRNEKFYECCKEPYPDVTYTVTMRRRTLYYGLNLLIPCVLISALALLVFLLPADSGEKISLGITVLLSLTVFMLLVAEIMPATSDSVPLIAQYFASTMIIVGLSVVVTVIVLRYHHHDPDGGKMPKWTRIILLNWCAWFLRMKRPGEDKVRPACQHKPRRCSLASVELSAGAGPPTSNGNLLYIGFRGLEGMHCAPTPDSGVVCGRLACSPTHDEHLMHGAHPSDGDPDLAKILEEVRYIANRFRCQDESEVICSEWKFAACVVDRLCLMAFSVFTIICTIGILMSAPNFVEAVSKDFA
# T2 sequence (P09483 31-630): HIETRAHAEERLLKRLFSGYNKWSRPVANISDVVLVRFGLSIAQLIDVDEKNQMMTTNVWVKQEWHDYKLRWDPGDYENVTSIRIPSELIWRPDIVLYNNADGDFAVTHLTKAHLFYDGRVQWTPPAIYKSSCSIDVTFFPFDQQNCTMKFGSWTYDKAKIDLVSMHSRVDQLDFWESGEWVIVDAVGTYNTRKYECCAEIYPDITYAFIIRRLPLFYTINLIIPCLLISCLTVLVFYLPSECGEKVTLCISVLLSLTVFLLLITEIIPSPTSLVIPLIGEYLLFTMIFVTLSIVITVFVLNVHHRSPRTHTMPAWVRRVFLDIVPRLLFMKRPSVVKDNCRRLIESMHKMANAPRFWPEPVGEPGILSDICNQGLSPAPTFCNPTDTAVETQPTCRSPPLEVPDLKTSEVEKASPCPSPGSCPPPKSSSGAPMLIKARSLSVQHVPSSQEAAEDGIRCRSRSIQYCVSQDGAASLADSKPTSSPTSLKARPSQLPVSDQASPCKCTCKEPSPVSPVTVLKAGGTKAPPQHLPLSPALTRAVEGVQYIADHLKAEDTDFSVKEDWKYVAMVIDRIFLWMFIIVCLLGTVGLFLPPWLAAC
# T2 sequence (P12390 25-500): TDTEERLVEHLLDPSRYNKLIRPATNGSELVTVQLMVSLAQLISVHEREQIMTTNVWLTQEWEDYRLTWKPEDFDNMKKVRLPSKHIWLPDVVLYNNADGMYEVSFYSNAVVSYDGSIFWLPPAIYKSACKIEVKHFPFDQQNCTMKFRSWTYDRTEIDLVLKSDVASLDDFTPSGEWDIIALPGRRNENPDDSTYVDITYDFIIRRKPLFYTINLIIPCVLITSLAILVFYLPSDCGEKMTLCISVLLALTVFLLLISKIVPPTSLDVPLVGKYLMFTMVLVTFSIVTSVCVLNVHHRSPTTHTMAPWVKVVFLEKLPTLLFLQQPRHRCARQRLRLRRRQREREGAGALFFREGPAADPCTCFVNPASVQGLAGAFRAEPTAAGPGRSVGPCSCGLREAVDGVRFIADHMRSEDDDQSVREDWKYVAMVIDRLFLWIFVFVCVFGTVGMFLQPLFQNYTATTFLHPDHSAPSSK
compound,measurement,setting,value
"CN1C2CCCC1CN(c1cccnc1)C2 [9-methyl-3-pyridin-3-yl-3,9-diaza-bicyclo[3.3.1]nonane]",Emax,α6/α3β2β3^V273S receptor,27%
same,Ki,[1],3.1 nM
same,Ki,α7,290 nM
same,dose giving half maximal displacement of specific binding of 3H-epibatidin,nicotinic receptors,0.15 mg/kg
same,"effect on reserpine-induced tremors, AUC 40-63 Hz",[2],dose-related reversal of reserpine tremors reaching statistical significance at 1.0 mg/kg
same,"reversal of reserpine-induced reduction of low frequency movements (catalepsy), AUC 3-13 Hz",[2],"Neither threshold dose of L-DOPA, nor 9-methyl-3-pyridin-3-yl-3,9-diaza-bicyclo[3.3.1]nonane or the combination of the two, was able to reverse this reduction"
